Experimental data as given in the supplement of paper PMC10307832.

Columns and labels:
Test in all cases: relative viability (nuclei count vs DMSO), 5 days (fraction); higher = more cells survive
Sunitinib + Phenformin = compound: CCN(CC)CCNC(=O)c1c(C)[nH]c(/C=C2\C(=O)Nc3ccc(F)cc32)c1C [Sunitinib] + N=C(N)NC(=N)NCCc1ccccc1 [Phenformin] (partner 250 µM)
In short: (§1)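 Cells from lung cancer lines were seeded into 1536-well plates and, one day later, dosed by pin tool. Treatments were either a single drug or a fixed dose of an anchor drug with five library-drug doses (not always all listed) in √10 steps. After 5 days, nuclei were stained in a one-step fixation (final 0.05% Triton X-100, 1% formaldehyde, 1 ug/ml Hoechst) and counted on 4× images, and relative viability is the treated-to-vehicle nuclei ratio, as the median of duplicate plates.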

Sunitinib + Dasatinib = compound: CCN(CC)CCNC(=O)c1c(C)[nH]c(/C=C2\C(=O)Nc3ccc(F)cc32)c1C [Sunitinib] + Cc1nc(Nc2ncc(C(=O)Nc3c(C)cccc3Cl)s2)cc(N2CCN(CCO)CC2)n1 [Dasatinib] (partner 0.075 µM)
In short: as §1

Sunitinib + Tozasertib = compound: CCN(CC)CCNC(=O)c1c(C)[nH]c(/C=C2\C(=O)Nc3ccc(F)cc32)c1C [Sunitinib] + Cc1cc(Nc2cc(N3CCN(C)CC3)nc(Sc3ccc(NC(=O)C4CC4)cc3)n2)n[nH]1 [Tozasertib] (partner 0.1 µM)
In short: as §1

Sunitinib + Foretinib = compound: CCN(CC)CCNC(=O)c1c(C)[nH]c(/C=C2\C(=O)Nc3ccc(F)cc32)c1C [Sunitinib] + COc1cc2c(Oc3ccc(NC(=O)C4(C(=O)Nc5ccc(F)cc5)CC4)cc3F)ccnc2cc1OCCCN1CCOCC1 [Foretinib] (partner 0.25 µM)
In short: as §1

Sunitinib + OSI-027 = compound: CCN(CC)CCNC(=O)c1c(C)[nH]c(/C=C2\C(=O)Nc3ccc(F)cc32)c1C [Sunitinib] + COc1cccc2cc(-c3nc([C@H]4CC[C@H](C(=O)O)CC4)n4ncnc(N)c34)[nH]c12 [OSI-027] (partner 0.5 µM)
In short: as §1

Sunitinib + Luminespib = compound: CCN(CC)CCNC(=O)c1c(C)[nH]c(/C=C2\C(=O)Nc3ccc(F)cc32)c1C [Sunitinib] + CCNC(=O)c1noc(-c2cc(C(C)C)c(O)cc2O)c1-c1ccc(CN2CCOCC2)cc1 [Luminespib] (partner 0.01 µM)
In short: as §1

Sunitinib = compound: CCN(CC)CCNC(=O)c1c(C)[nH]c(/C=C2\C(=O)Nc3ccc(F)cc32)c1C [Sunitinib]
In short: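 Only plates meeting two conditions passed: control CV below 25% and at least one doubling. Lung cancer cell lines, kept overnight at 37 °C in 1536-well plates, were pinned with five library-drug doses (not always all listed) √10 apart on vehicle-anchored plates and grown 5 days without medium change. A one-step fix, permeabilisation and Hoechst stain preceded 4× imaging and MetaXpress nuclear counting. Viability equals treated-well nuclei divided by vehicle-well nuclei, as the median over plates.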

Sunitinib + Pemetrexed = compound: CCN(CC)CCNC(=O)c1c(C)[nH]c(/C=C2\C(=O)Nc3ccc(F)cc32)c1C [Sunitinib] + Nc1nc2[nH]cc(CCc3ccc(C(=O)N[C@@H](CCC(=O)O)C(=O)O)cc3)c2c(=O)[nH]1 [Pemetrexed] (partner 0.2 µM)
In short: as §1

Sunitinib + Vorinostat = compound: CCN(CC)CCNC(=O)c1c(C)[nH]c(/C=C2\C(=O)Nc3ccc(F)cc32)c1C [Sunitinib] + O=C(CCCCCCC(=O)Nc1ccccc1)NO [Vorinostat] (partner 1 µM)
In short: as §1

Sunitinib + Olaparib = compound: CCN(CC)CCNC(=O)c1c(C)[nH]c(/C=C2\C(=O)Nc3ccc(F)cc32)c1C [Sunitinib] + O=C(c1cc(Cc2n[nH]c(=O)c3ccccc23)ccc1F)N1CCN(C(=O)C2CC2)CC1 [Olaparib] (partner 8 µM)
In short: as §1

Sunitinib + Palbociclib = compound: CCN(CC)CCNC(=O)c1c(C)[nH]c(/C=C2\C(=O)Nc3ccc(F)cc32)c1C [Sunitinib] + CC(=O)c1c(C)c2cnc(Nc3ccc(N4CCNCC4)cn3)nc2n(C2CCCC2)c1=O [Palbociclib] (partner 0.5 µM)
In short: as §1

Sunitinib + AZD7762 = compound: CCN(CC)CCNC(=O)c1c(C)[nH]c(/C=C2\C(=O)Nc3ccc(F)cc32)c1C [Sunitinib] + NC(=O)Nc1cc(-c2cccc(F)c2)sc1C(=O)N[C@H]1CCCNC1 [AZD7762] (partner 0.2 µM)
In short: as §1

Sunitinib + Trametinib = compound: CCN(CC)CCNC(=O)c1c(C)[nH]c(/C=C2\C(=O)Nc3ccc(F)cc32)c1C [Sunitinib] + CC(=O)Nc1cccc(-n2c(=O)n(C3CC3)c(=O)c3c(Nc4ccc(I)cc4F)n(C)c(=O)c(C)c32)c1 [Trametinib] (partner 0.02 µM)
In short: as §1

Sunitinib + Decitabine = compound: CCN(CC)CCNC(=O)c1c(C)[nH]c(/C=C2\C(=O)Nc3ccc(F)cc32)c1C [Sunitinib] + Nc1ncn([C@H]2C[C@H](O)[C@@H](CO)O2)c(=O)n1 [Decitabine] (partner 2 µM)
In short: as §1

In the case of NCI-H1623, the relative viability (Sunitinib + Phenformin; first compound 0.02 µM) was 0.649, the relative viability (Sunitinib + Phenformin; first compound 0.06325 µM) was 0.499 and the relative viability (Sunitinib + Phenformin; first compound 0.2 µM) was 0.581. For the same cell line, the relative viability (Sunitinib + Phenformin; first compound 0.6325 µM) was 0.675, the relative viability (Sunitinib + Phenformin; first compound 2 µM) was 0.49 and the relative viability (Sunitinib + Dasatinib; first compound 0.02 µM) was 0.612. For the same cell line, the relative viability (Sunitinib + Dasatinib; first compound 0.06325 µM) was 0.507, the relative viability (Sunitinib + Dasatinib; first compound 0.2 µM) was 0.574 and the relative viability (Sunitinib + Dasatinib; first compound 0.6325 µM) was 0.58. The relative viability (Sunitinib + Dasatinib; first compound 2 µM) was 0.543, the relative viability (Sunitinib + Tozasertib; first compound 0.02 µM) was 0.461 and the relative viability (Sunitinib + Tozasertib; first compound 0.06325 µM) was 0.434. For the same cell line, the relative viability (Sunitinib + Tozasertib; first compound 0.2 µM) was 0.446, the relative viability (Sunitinib + Tozasertib; first compound 0.6325 µM) was 0.488 and the relative viability (Sunitinib + Tozasertib; first compound 2 µM) was 0.369. The relative viability (Sunitinib + Foretinib; first compound 0.02 µM) was 0.83, the relative viability (Sunitinib + Foretinib; first compound 0.06325 µM) was 0.843 and the relative viability (Sunitinib + Foretinib; first compound 0.2 µM) was 0.955. It also gave a relative viability (Sunitinib + Foretinib; first compound 0.6325 µM) of 0.977, a relative viability (Sunitinib + Foretinib; first compound 2 µM) of 0.872 and a relative viability (Sunitinib + OSI-027; first compound 0.02 µM) of 0.45. The relative viability (Sunitinib + OSI-027; first compound 0.06325 µM) was 0.393, the relative viability (Sunitinib + OSI-027; first compound 0.2 µM) was 0.474 and the relative viability (Sunitinib + OSI-027; first compound 0.6325 µM) was 0.407. The relative viability (Sunitinib + OSI-027; first compound 2 µM) was 0.358, the relative viability (Sunitinib + Luminespib; first compound 0.02 µM) was 0.545 and the relative viability (Sunitinib + Luminespib; first compound 0.06325 µM) was 0.545. It also gave a relative viability (Sunitinib + Luminespib; first compound 0.2 µM) of 0.682, a relative viability (Sunitinib + Luminespib; first compound 0.6325 µM) of 0.611 and a relative viability (Sunitinib + Luminespib; first compound 2 µM) of 0.464. For the same cell line, the relative viability (Sunitinib; 0.02 µM) was 0.98, the relative viability (Sunitinib; 0.06325 µM) was 0.96 and the relative viability (Sunitinib; 0.2 µM) was 0.994. The relative viability (Sunitinib; 2 µM) was 0.916.
SW 900 was tested, and the relative viability (Sunitinib + Phenformin; first compound 0.02 µM) was 0.579, the relative viability (Sunitinib + Phenformin; first compound 0.06325 µM) was 0.79 and the relative viability (Sunitinib + Phenformin; first compound 0.2 µM) was 0.641. It also gave a relative viability (Sunitinib + Phenformin; first compound 0.6325 µM) of 0.894, a relative viability (Sunitinib + Phenformin; first compound 2 µM) of 0.581 and a relative viability (Sunitinib + Pemetrexed; first compound 0.02 µM) of 0.466. It also gave a relative viability (Sunitinib + Pemetrexed; first compound 0.06325 µM) of 0.495, a relative viability (Sunitinib + Pemetrexed; first compound 0.2 µM) of 0.491 and a relative viability (Sunitinib + Pemetrexed; first compound 0.6325 µM) of 0.5. For the same cell line, the relative viability (Sunitinib + Pemetrexed; first compound 2 µM) was 0.501, the relative viability (Sunitinib + Dasatinib; first compound 0.02 µM) was 0.418 and the relative viability (Sunitinib + Dasatinib; first compound 0.06325 µM) was 0.722. The relative viability (Sunitinib + Dasatinib; first compound 0.2 µM) was 0.634, the relative viability (Sunitinib + Dasatinib; first compound 0.6325 µM) was 0.717 and the relative viability (Sunitinib + Dasatinib; first compound 2 µM) was 0.605. The relative viability (Sunitinib + Tozasertib; first compound 0.02 µM) was 0.432, the relative viability (Sunitinib + Tozasertib; first compound 0.06325 µM) was 0.58 and the relative viability (Sunitinib + Tozasertib; first compound 0.2 µM) was 0.648. The relative viability (Sunitinib + Tozasertib; first compound 0.6325 µM) was 0.525, the relative viability (Sunitinib + Tozasertib; first compound 2 µM) was 0.328 and the relative viability (Sunitinib + Vorinostat; first compound 0.02 µM) was 0.516. It also gave a relative viability (Sunitinib + Vorinostat; first compound 0.06325 µM) of 0.626, a relative viability (Sunitinib + Vorinostat; first compound 0.2 µM) of 0.541 and a relative viability (Sunitinib + Vorinostat; first compound 0.6325 µM) of 0.604. It also gave a relative viability (Sunitinib + Vorinostat; first compound 2 µM) of 0.597, a relative viability (Sunitinib + Olaparib; first compound 0.02 µM) of 0.794 and a relative viability (Sunitinib + Olaparib; first compound 0.06325 µM) of 1.04. The relative viability (Sunitinib + Olaparib; first compound 0.2 µM) was 0.847, the relative viability (Sunitinib + Olaparib; first compound 0.6325 µM) was 1.1 and the relative viability (Sunitinib + Olaparib; first compound 2 µM) was 0.945. For the same cell line, the relative viability (Sunitinib + Foretinib; first compound 0.02 µM) was 0.834, the relative viability (Sunitinib + Foretinib; first compound 0.06325 µM) was 0.934 and the relative viability (Sunitinib + Foretinib; first compound 0.2 µM) was 0.865. For the same cell line, the relative viability (Sunitinib + Foretinib; first compound 0.6325 µM) was 0.966, the relative viability (Sunitinib + Foretinib; first compound 2 µM) was 0.834 and the relative viability (Sunitinib + Palbociclib; first compound 0.02 µM) was 0.517. The relative viability (Sunitinib + Palbociclib; first compound 0.06325 µM) was 0.592, the relative viability (Sunitinib + Palbociclib; first compound 0.2 µM) was 0.576 and the relative viability (Sunitinib + Palbociclib; first compound 0.6325 µM) was 0.587. For the same cell line, the relative viability (Sunitinib + Palbociclib; first compound 2 µM) was 0.604, the relative viability (Sunitinib + OSI-027; first compound 0.02 µM) was 0.597 and the relative viability (Sunitinib + OSI-027; first compound 0.06325 µM) was 0.715. It also gave a relative viability (Sunitinib + OSI-027; first compound 0.2 µM) of 0.665, a relative viability (Sunitinib + OSI-027; first compound 0.6325 µM) of 0.584 and a relative viability (Sunitinib + OSI-027; first compound 2 µM) of 0.614. It also gave a relative viability (Sunitinib + Luminespib; first compound 0.02 µM) of 0.183, a relative viability (Sunitinib + Luminespib; first compound 0.06325 µM) of 0.22 and a relative viability (Sunitinib + Luminespib; first compound 0.2 µM) of 0.172. The relative viability (Sunitinib + Luminespib; first compound 0.6325 µM) was 0.192, the relative viability (Sunitinib + Luminespib; first compound 2 µM) was 0.194 and the relative viability (Sunitinib + AZD7762; first compound 0.02 µM) was 0.633. The relative viability (Sunitinib + AZD7762; first compound 0.06325 µM) was 0.676, the relative viability (Sunitinib + AZD7762; first compound 0.2 µM) was 0.664 and the relative viability (Sunitinib + AZD7762; first compound 0.6325 µM) was 0.67. The relative viability (Sunitinib + AZD7762; first compound 2 µM) was 0.648, the relative viability (Sunitinib + Trametinib; first compound 0.02 µM) was 0.718 and the relative viability (Sunitinib + Trametinib; first compound 0.06325 µM) was 0.715. For the same cell line, the relative viability (Sunitinib + Trametinib; first compound 0.2 µM) was 0.941, the relative viability (Sunitinib + Trametinib; first compound 0.6325 µM) was 0.795 and the relative viability (Sunitinib + Trametinib; first compound 2 µM) was 0.766. For the same cell line, the relative viability (Sunitinib + Decitabine; first compound 0.02 µM) was 0.44, the relative viability (Sunitinib + Decitabine; first compound 0.06325 µM) was 0.364 and the relative viability (Sunitinib + Decitabine; first compound 0.2 µM) was 0.394. The relative viability (Sunitinib + Decitabine; first compound 0.6325 µM) was 0.407, the relative viability (Sunitinib + Decitabine; first compound 2 µM) was 0.433 and the relative viability (Sunitinib; 0.02 µM) was 1.01. For the same cell line, the relative viability (Sunitinib; 0.06325 µM) was 1.07, the relative viability (Sunitinib; 0.2 µM) was 0.932 and the relative viability (Sunitinib; 0.6325 µM) was 1.04. For the same cell line, the relative viability (Sunitinib; 2 µM) was 0.957.
